How the values were obtained:
[1] = molecular target: T1, IGF 3P (Homo sapiens, UniProt P08069); assay: IGF1R kinase assay (LCCA), IGF 3P; type: biochemical; settings: IGF1R kinase LCCA assay
T1 construct: human IGF1R kinase domain residues M954-C1367; made in house; host or cells: baculovirus expression (insect cells)
Method: (§1) Kinase activity and compound inhibition are investigated using one or more of the three assay formats described below. The ATP concentrations for each assay are selected to be close to the Michaelis-Menten constant (KM) for each individual kinase. Dose-response experiments are performed at 10 different inhibitor concentrations in a 384-well plate format. […] Y=Min+(Max−Min)/(1+(X/IC50)^H) Equation (2)
(§2) IGF1R kinase biochemical activity was assessed using a Luciferase-Coupled Chemiluminescent Kinase assay (LCCA) format. Kinase activity was measured as the percent ATP remaining following the kinase reaction. Remaining ATP was detected by luciferase-luciferin-coupled chemiluminescence. Specifically, the reaction was initiated by mixing test compounds, 3 μM ATP, 4 μM poly EY peptide and 4 nM IGF1R (baculovirus expressed human IGF1R kinase domain residues M954-C1367) in a 20 uL assay buffer (20 mM Tris-HCL pH7.5, 10 mM MgCl2, 0.02% Triton X-100, 1 mM DTT, 2 mM MnCl2). The mixture is incubated at ambient temperature for 2 hours after which 20 uL luciferase-luciferin mix is added and the chemiluminescent signal read using a Wallac Victor^2 reader.

[2] = molecular target: T2, (Homo sapiens, UniProt P08069); assay: IGF1R kinase assay (LCCA), IGF 0P; type: biochemical; settings: IGF1R kinase LCCA assay
T2 construct: human IGF1R kinase domain residues M954-C1367; made in house; host or cells: baculovirus expression (insect cells)
Method: as §1, §2

T1 sequence (P08069 954-1367): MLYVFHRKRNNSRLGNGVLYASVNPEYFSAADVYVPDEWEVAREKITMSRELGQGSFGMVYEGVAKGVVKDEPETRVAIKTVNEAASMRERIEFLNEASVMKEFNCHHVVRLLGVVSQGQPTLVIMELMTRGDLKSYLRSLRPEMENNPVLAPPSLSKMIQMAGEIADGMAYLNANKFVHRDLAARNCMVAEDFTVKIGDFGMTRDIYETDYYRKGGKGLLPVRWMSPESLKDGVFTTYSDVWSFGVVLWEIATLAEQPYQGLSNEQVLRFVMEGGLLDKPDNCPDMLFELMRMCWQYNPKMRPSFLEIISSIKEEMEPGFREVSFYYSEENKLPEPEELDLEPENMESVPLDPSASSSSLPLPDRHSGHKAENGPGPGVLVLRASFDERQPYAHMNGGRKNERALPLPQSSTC
T2 sequence (P08069 954-1367): as above

SMILES | IC50 [1] | IC50 [2] | IC50 ([1]; IGF 3P) | IC50 ([2]; IGF 0P)
CC(C)c1cc(Nc2nc(NCc3cc(-c4ccccc4)no3)ncc2Br)[nH]n1 [Example 10] | 50 to 500 nM | 50 to 500 nM | – | –
c1ccc(-c2cc(CNc3nc(Nc4cc(C5CC5)n[nH]4)cc(N4CCCC4)n3)on2)cc1 [Example 12] | 50 to 500 nM | 50 to 500 nM | – | –
CC(C)(C)c1cc(Nc2nc(NCc3cc(-c4ccccc4)no3)ncc2Br)n[nH]1 [Example 16] | 500 to 5000 nM | 50 to 500 nM | – | –
Cc1cc(Nc2nc(NCc3cc(-c4ccccc4)no3)ncc2Br)[nH]n1 [Example 19] | 500 to 5000 nM | 500 to 5000 nM | – | –
CN(C)C(=O)Oc1cccc(Nc2ncc(Br)c(Nc3cc(C4CC4)n[nH]3)n2)c1 [Example 35] | 50 to 500 nM | 50 to 500 nM | – | –
CN1CCN(C(=O)Cc2ccc(Nc3ncc(Br)c(Nc4cc(C5CC5)n[nH]4)n3)cc2)CC1 [Example 37] | 50 to 500 nM | 500 to 5000 nM | – | –
CCN(CC)CCCNc1cc(Nc2cc(C3CC3)[nH]n2)nc(NCc2cc(-c3ccccc3)no2)n1 [Example 42] | < 50 nM | 50 to 500 nM | – | –
CCN(CC)CCNc1cc(Nc2cc(C3CC3)[nH]n2)nc(NCc2cc(-c3ccccc3)no2)n1 [Example 45] | < 50 nM | < 50 nM | – | –
Cc1cc(Nc2cc(C3CC3)n[nH]2)nc(Nc2ccc3cc(C(=O)NCCN4CCCC4)ccc3c2)n1 [Example 49] | < 50 nM | 50 to 500 nM | – | –
Cc1cc(Nc2cc(C3CC3)[nH]n2)nc(NCc2cc(C(C)C)no2)n1 [Example 50] | < 50 nM | 500 to 5000 nM | – | –
Cc1cc(Nc2cc(C3CC3)n[nH]2)nc(Nc2ccc(CCC(=O)NCCCN3CCCCC3)cc2)n1 [Example 51] | < 50 nM | > 5000 nM | – | –
COc1cc(Nc2ncc(Br)c(Nc3cc(C)on3)n2)cc(OC)c1 [Example 53] | < 50 nM | 50 to 500 nM | – | –
CC(=O)Nc1ccc(Cl)c(Nc2ncc(Br)c(Nc3cc(C)on3)n2)c1 [Example 57] | < 50 nM | 500 to 5000 nM | – | –
CCN(CC)CCNC(=O)CCc1ccc(Nc2ncc(Br)c(Nc3cc(C)on3)n2)cc1 [Example 58] | – | – | < 50 nM | 500 to 5000 nM
CCN(CC)CCNC(=O)c1ccc2cc(Nc3nc(C)cc(Nc4cc(C5CC5)n[nH]4)n3)ccc2c1 [Example 59] | < 50 nM | 50 to 500 nM | – | –
CCN(CC)CCCNc1nc(Nc2ccccc2Cl)nc(Nc2cc(C3CC3)n[nH]2)c1Cl [Example 66] | < 50 nM | 50 to 500 nM | – | –
CN(C)C(=O)CCc1ccc(Nc2ncc(Br)c(Nc3cc(C4CC4)n[nH]3)n2)cc1 [Example 76] | 50 to 500 nM | 50 to 500 nM | – | –
Brc1cnc(Nc2ccc(N3CCOCC3)cc2)nc1Nc1cc(-c2ccco2)[nH]n1 [Example 80] | 50 to 500 nM | 50 to 500 nM | – | –
Cc1cc(Nc2cc(C3CC3)[nH]n2)nc(NCc2cc(C3CCCCC3)no2)n1 [Example 82] | 50 to 500 nM | 50 to 500 nM | – | –

SMILES | IC50 [1] | IC50 [2] | IC50 ([1]; IGF 3P) | IC50 ([2]; IGF 0P)
NS(=O)(=O)c1ccc(Nc2ncc(Br)c(Nc3cc(C4CC4)n[nH]3)n2)cc1 [Example 91] | 50 to 500 nM | 50 to 500 nM | – | –
CN1CCN(C(=O)CCc2cccc(Nc3ncc(Br)c(Nc4cc(C5CC5)n[nH]4)n3)c2)CC1 [Example 100] | 50 to 500 nM | 500 to 5000 nM | – | –
Brc1cnc(Nc2ccc3c(c2)OCCO3)nc1Nc1cc(C2CC2)n[nH]1 [Example 104] | 50 to 500 nM | 50 to 500 nM | – | –
CCN(CC)CCCNC(=O)CCc1cccc(Nc2ncc(Br)c(Nc3cc(C4CC4)n[nH]3)n2)c1 [Example 107] | 50 to 500 nM | 500 to 5000 nM | – | –
CN(C)c1cc(Nc2cc(C3CC3)[nH]n2)nc(NCc2cc(-c3ccccc3)no2)n1 [Example 110] | 50 to 500 nM | 50 to 500 nM | – | –
Cc1cc(Nc2cc(C3CC3)n[nH]2)nc(Nc2ccc(CCC(=O)N(C)C)cc2)n1 [Example 111] | 50 to 500 nM | 500 to 5000 nM | – | –
Cc1cc(Nc2ccnc(Nc3ccc(N4CCOCC4)cc3)n2)no1 [Example 113] | 50 to 500 nM | 500 to 5000 nM | – | –
CN1CCN(C(=O)c2ccc(Nc3ncc(Br)c(Nc4cc(C5CC5)n[nH]4)n3)cc2)CC1 [Example 124] | 50 to 500 nM | 500 to 5000 nM | – | –
Cc1cc(Nc2cc(C3CC3)n[nH]2)nc(Nc2ccc(CC#N)cc2)n1 [Example 125] | 50 to 500 nM | 50 to 500 nM | – | –
c1cc(Nc2cc(C3CC3)[nH]n2)nc(NCc2cc(C3CCCCC3)no2)n1 [Example 129] | 50 to 500 nM | 500 to 5000 nM | – | –
Brc1cnc(Nc2ccc3[nH]ccc3c2)nc1Nc1cc(C2CC2)n[nH]1 [Example 132] | 50 to 500 nM | 50 to 500 nM | – | –
Cc1cc(C)cc(Nc2ncc(Br)c(Nc3cc(C4CC4)n[nH]3)n2)c1 [Example 134] | 50 to 500 nM | 500 to 5000 nM | – | –
O=S(=O)(c1ccc(Nc2ncc(Br)c(Nc3cc(C4CC4)n[nH]3)n2)cc1)N1CCOCC1 [Example 140] | 50 to 500 nM | 500 to 5000 nM | – | –
CC(C)(C)OC(=O)N1CC[C@H](NC(=O)c2cccc(Nc3ncc(Br)c(Nc4cc(C5CC5)n[nH]4)n3)c2)C1 [Example 141] | 50 to 500 nM | 500 to 5000 nM | – | –
Cc1ccc(CNc2ncc(Br)c(Nc3cc(C4CC4)n[nH]3)n2)o1 [Example 142] | 50 to 500 nM | 500 to 5000 nM | – | –
CC(C)(C)OC(=O)N1CC[C@@H](NC(=O)c2ccc(Nc3ncc(Br)c(Nc4cc(C5CC5)n[nH]4)n3)cc2)C1 [Example 145] | 50 to 500 nM | 500 to 5000 nM | – | –
c1cc(Nc2cc(C3CCCC3)n[nH]2)nc(Nc2ccc(N3CCOCC3)cc2)n1 [Example 151] | 50 to 500 nM | 500 to 5000 nM | – | –
Cc1cnc(Nc2ccc(C(=O)NC3CCN(C)CC3)cc2)nc1Nc1cc(C2CC2)n[nH]1 [Example 157] | 500 to 5000 nM | 500 to 5000 nM | – | –

Second part, the molecule after the results:

IC50 [1] | IC50 [2] | IC50 ([1]; IGF 3P) | IC50 ([2]; IGF 0P) | SMILES
50 to 500 nM | 50 to 500 nM | – | – | Brc1cnc(NCc2cc(-c3ccccc3)no2)nc1Nc1cc(C2CC2)[nH]n1 [Example 14]
500 to 5000 nM | 50 to 500 nM | – | – | Brc1cnc(NC2CCc3ccccc32)nc1Nc1cc(C2CC2)[nH]n1 (stereo not drawn) [Example 25]
500 to 5000 nM | 50 to 500 nM | – | – | Brc1cnc(NC2CCCc3ccccc32)nc1Nc1cc(C2CC2)[nH]n1 (stereo not drawn) [Example 34]
< 50 nM | 500 to 5000 nM | – | – | CC(C)c1cc(CNc2ncc(Br)c(Nc3cc(C4CC4)[nH]n3)n2)on1 [Example 65]
50 to 500 nM | 500 to 5000 nM | – | – | Brc1cc(CNc2ncc(Br)c(Nc3cc(C4CC4)[nH]n3)n2)on1 [Example 72]
50 to 500 nM | 500 to 5000 nM | – | – | Brc1cnc(Nc2ccc(N3CCOCC3)nc2)nc1Nc1cc(C2CC2)n[nH]1 [Example 81]
50 to 500 nM | 50 to 500 nM | – | – | Brc1ccccc1Nc1ncc(Br)c(Nc2cc(C3CC3)n[nH]2)n1 [Example 83]
50 to 500 nM | 50 to 500 nM | – | – | FC(F)(F)Oc1ccccc1Nc1ncc(Br)c(Nc2cc(C3CC3)n[nH]2)n1 [Example 84]
50 to 500 nM | 500 to 5000 nM | – | – | CN1CCN(C(=O)CCc2ccc(Nc3ncc(Br)c(Nc4cc(C5CC5)[nH]n4)n3)cc2)CC1 [Example 85]
50 to 500 nM | 500 to 5000 nM | – | – | Cc1cc(Nc2nc(Nc3ccccc3)ncc2Br)[nH]n1 [Example 90]
50 to 500 nM | 50 to 500 nM | – | – | CC(C)(C)OC(=O)NCc1ccc(Nc2ncc(Br)c(Nc3cc(C4CC4)[nH]n3)n2)cc1 [Example 92]
50 to 500 nM | 50 to 500 nM | – | – | Cc1c(Br)cccc1Nc1ncc(Br)c(Nc2cc(C3CC3)[nH]n2)n1 [Example 95]
50 to 500 nM | 50 to 500 nM | – | – | Brc1cnc(Nc2ccccc2I)nc1Nc1cc(C2CC2)n[nH]1 [Example 96]
50 to 500 nM | 50 to 500 nM | – | – | Clc1ccccc1Nc1ncc(Cl)c(Nc2cc(C3CC3)[nH]n2)n1 [Example 101]
50 to 500 nM | 500 to 5000 nM | – | – | CC(C)(C)c1cc(Nc2nc(Nc3ccccc3)ncc2Br)n[nH]1 [Example 116]
50 to 500 nM | 50 to 500 nM | – | – | N#Cc1ccc(Nc2ncc(Cl)c(Nc3cc(C4CC4)[nH]n3)n2)cc1 [Example 117]
50 to 500 nM | 500 to 5000 nM | – | – | CC(C)CNc1ncc(Br)c(Nc2cc(C3CC3)[nH]n2)n1 [Example 118]
50 to 500 nM | 50 to 500 nM | – | – | Fc1ccc(Nc2ncc(Br)c(Nc3cc(C4CC4)n[nH]3)n2)c(Br)c1 [Example 121]
50 to 500 nM | 500 to 5000 nM | – | – | CN1CCN(C(=O)c2cccc(Nc3ncc(Br)c(Nc4cc(C5CC5)n[nH]4)n3)c2)CC1 [Example 128]
50 to 500 nM | 50 to 500 nM | – | – | Brc1cnc(Nc2cccc3ccccc23)nc1Nc1cc(C2CC2)[nH]n1 [Example 130]
50 to 500 nM | 500 to 5000 nM | – | – | CSc1ccccc1Nc1ncc(Br)c(Nc2cc(C3CC3)n[nH]2)n1 [Example 131]
50 to 500 nM | 500 to 5000 nM | – | – | Brc1cnc(Nc2cc(C3CC3)n[nH]2)nc1Nc1cc(C2CC2)n[nH]1 [Example 133]
50 to 500 nM | 500 to 5000 nM | – | – | Cc1ncc(CNc2ncc(Br)c(Nc3cc(C4CC4)[nH]n3)n2)s1 [Example 135]
50 to 500 nM | 50 to 500 nM | – | – | Brc1cnc(NCc2ccco2)nc1Nc1cc(C2CC2)n[nH]1 [Example 138]
50 to 500 nM | 500 to 5000 nM | – | – | Clc1cc(Br)ccc1Nc1ncc(Br)c(Nc2cc(C3CC3)[nH]n2)n1 [Example 143]
50 to 500 nM | 500 to 5000 nM | – | – | COc1ccc(C)cc1Nc1ncc(Br)c(Nc2cc(C3CC3)[nH]n2)n1 [Example 147]
